The format of series [1] is physicochemical. The text has this: The dimethyl isosorbide is capable of solubilizing up to 200 g per liter of neat propyl magnolol or isopropyl magnolol, up to 100 g per liter of isobutyl magnolol, or up to 50 g per liter of butyl magnolol. In certain embodiments, the amount of dimethyl isosorbide is at least 5 times the weight of the propyl magnolol or isopropyl magnolol in the composition. In certain embodiments, the amount of dimethyl isosorbide is at least 10 times the weight of isobutyl magnolol in the composition. In certain embodiments, the amount of dimethyl isosorbide is at least 20 times the weight of butyl magnolol in the composition.

A short description of series [2]: Solubilizing isobutyl magnolol with other solubilizers. It counts as physicochemical. The text has this: It was surprising that dimethyl isosorbide was able to solubilize these analogs.

Structures are written as SMILES.

In the case of `CC(C)Cc1ccc(O)c(-c2cc(CC(C)C)ccc2O)c1` [isobutyl magnolol, 5,5′-di-isobutylbiphenyl-2,2′-diol], the “amount of neat magnolol analog solubilized by dimethyl isosorbide” value in series [1] was “up to 100 g per liter”. Further, the ability to solubilize entry in series [2] (solubilizer C12-15 alkyl benzoate), in series [2] (solubilizer PEG-7 glyceryl cocoate), in series [2] (solubilizer PEG-8/SMDI copolymer), in series [2] (solubilizer PPG-2 hydroxyethyl cocoamide), in series [2] (solubilizer PPG-5 laureth-5 (Eumulgin ES)) and in series [2] (solubilizer isopropyl myristate) was “not able to solubilize” throughout. Further, the ability to solubilize entry in series [2] (solubilizer poloxamer 124) is given as “not able to solubilize”.
As to `CCCCc1ccc(O)c(-c2cc(CCCC)ccc2O)c1` [butyl magnolol, 5,5′-di-n-butylbiphenyl-2,2′-diol], the “amount of neat magnolol analog solubilized by dimethyl isosorbide” value in series [1] was “up to 50 g per liter”.
On the same count and under the same terms, then `CCCc1ccc(O)c(-c2cc(CCC)ccc2O)c1` [propyl magnolol, 5,5′-di-n-propylbiphenyl-2,2′-diol], with “up to 200 g per liter”; and `CC(C)c1ccc(O)c(-c2cc(C(C)C)ccc2O)c1` [isopropyl magnolol, 5,5′-di-isopropylbiphenyl-2,2′-diol], with “up to 200 g per liter”.

These data come from patent US20140341818A1, “SOLUBILIZED MAGNOLOL ANALOGS” (COLGATE-PALMOLIVE COMPANY, priority 2011, published 2014).
